According to the NIST ThermoML archive (doi:10.1016/j.jct.2019.03.025):

Details: Liquid, Vibrating tube method

Cc1cccc(C)c1 [1,3-dimethylbenzene]
mass density [kg/m3]
Details	293.15 K	303.15 K	313.15 K	323.15 K	333.15 K	343.15 K	353.15 K	363.15 K
100 kPa	864.2	855	846.7	837.7	829	820	811.3	802.2
1000 kPa	864.4	855.4	846.9	838.6	829.8	821.1	812.2	803.3
3000 kPa	865.8	857.5	848.6	840.2	831.7	823	814.3	805.5
5000 kPa	866.9	858.8	850.1	841.9	833.4	825	816.2	807.6
10000 kPa	870.5	862.3	854	845.9	837.6	829.4	821	812.4
15000 kPa	873.8	865.8	857.6	849.8	841.6	833.6	825.7	817.6
20000 kPa	877	869	861.1	853.6	845.6	837.9	829.8	821.8
25000 kPa	880.2	872.2	864.5	857	849.3	841.7	834	826
30000 kPa	883.2	875.3	867.7	860.4	852.8	845.5	838	830.2
35000 kPa	886	878.2	870.9	863.7	856.2	849.2	841.7	834.2
40000 kPa	888.7	881	873.8	866.9	859.7	852.5	845.3	838.1
50000 kPa	894.4	886.7	879.8	873	866	859.1	852.1	845.2
60000 kPa	899.1	892	885.1	878.8	871.9	865	858.5	852
